The values that follow come from patent US10995186B2, “Light-activated preparation of hydrogels” (Otago Innovation Limited, priority 2015, dated 2021).

pIC50: −log10 of the molar value. Where two headings read alike, the source gives them in different places.

In series [1] the test system is human ovarian adenocarcinoma cell lines (SKOV3). As to the kind of experiment: cells. Conditions: SK-OV-3, 96 h.
Method: (§1) Experiments were carried out with human ovarian adenocarcinoma cell lines (SKOV3) and normal human foreskin fibroblasts (HFF). […] Cells were expanded at 37° C. in a humidified 5% CO2/95% air incubator and media was changed twice a week.
(§2) Each cell encapsulated microspheres was then transferred to well in a 96-well polystyrene plate (Falcon). 150 μL of cell culture media was then pipetted into the wells and placed in the incubator and the media was changed twice a week.
Series [2] relates to normal human foreskin fibroblasts (HFF). The series can be described thus: cells. The note with it: Fibroblast, 96 h.
Series [3] relates to co-culture (75% SKOV3 and 25% HFF) cells. The series can be described thus: cells. Conditions: Homo sapiens, 96 h.
Series [4] deals with human ovarian adenocarcinoma cell lines (SKOV3).
Method: as §1, §2
In series [5] the test system is assembled cancer construct. The series can be described thus: Darkfield images of doxorubicin-treated cancer construct. It counts as cell-based, human. The source says:
To print the assembled construct (n=3) a layer-by-layer approach was opted so as to not limit the height of the scaffold that can be constructed using the system. In this scheme the first layer of the scaffold (8 layers of fibre strands) was printed (as described earlier) and then 4 (2×2 fashion) live microspheres were inserted into the pores of the 3D plotted scaffold. This process was repeated to generate a second layer of the scaffold (4 layers of fibre strands) and then 4 more microspheres were inserted into the scaffold. But for the manually assembled scaffold, the whole scaffold was printed at once and the micro-tissues were inserted manually into pre-printed scaffolds in a similar format to the ones assembled with the automated system.
The cytotoxicity test was used to evaluate in vitro antitumor activity of Doxorubicin on cells in 2D, microspheres and assembled cancer construct. […] On day 1 of forming the microspheres, SKOV3, HFF and co-culture cancer constructs were manually assembled and transferred to a 24-well plate with 1.2 ml of media per well. On day 7, for the cytotoxicity test on 2D model, SKOV3s, HFFs and co-culture (75% SKOV3 and 25% HFF) cells were seeded onto a 48-well plate at 30,000 cells and 200 μl of media per well. […] Media with 5% FBS containing the specific concentration of drug was changed every 2 days. […]

The subject of series [6] is co-culture (75% SKOV3 and 25% HFF) cells.
Series [7] concerns normal human foreskin fibroblasts (HFF). The note with it: Fibroblast.
Series [8] relates to human articular chondrocytes (HAC). As to the kind of experiment: Photo-toxicity and radical toxicity evaluation, HAC on 2D surfaces. Conditions: 7 days post treatment, light plus initiator.
Method: (§3) Articular cartilage biopsies were harvested with ethics approval from a consenting patient. The cartilage was diced into 1 to 2 mm cubes and digested overnight at 37° C. with 0.15% w/v collagenase type II in basic chondrocyte media (DMEM high glucose media supplemented with 10% FCS, 10 mM HEPES, 0.2 mM L-ascorbic acid-2-phosphate, 0.4 mM L-proline and 1% PS). The resulting suspension was filtered through a 100-μm cell strainer (BD Biosciences) to exclude the undigested tissue and centrifuged at 700-g for 4 min. The isolated chondrocytes (HAC) were cultured in basic chondrocyte media and expanded at 37° C. in a humidified 5% CO2/95% air incubator.
(§4) HAC in culture flasks were trypsinised, suspended in basic chondrocyte media, and seeded in 48 well plates at a concentration of 50 HACs/mm^2. The cells were firstly allowed to attach to the surface for 4 hours, then exposed to either 30 mW/cm^2 of UV or visible light (15 minutes), with or without 0.05 wt % of 12959 or 0.2/2 Ru/SPS (mM) respectively. […] After 1 and 7 days, the cells were visualised and quantified using the live/dead assay. […]
(§5) The cells will stain green if alive and red if dead. After staining, the gels were washed with PBS for three times before imaging them using a fluorescence microscope (Zeiss axioimager Z1). The cells were quantified using the ImageJ software and the cell viability was calculated using the equation below:
Series [9] is described as follows: Deformation of thickness (oxygen inhibition) of Gel-MA/collagen hydrogel. The series is classed as physicochemical. Conditions: Gel-MA+Collagen 1 discs. Here is the method: The constructs were then irradiated for 15 minutes in the presences of a photo-initiator and a light source, where the surfaces of the constructs were exposed to oxygen. In a first experiment, the light intensity was kept at 3 mW/cm^2 whereas the photo-initiator concentrations were varied from 0.05 to 0.5 wt % and 0.2/2 mM to 2/20 mM for 12959 and Ru/SPS respectively. In a second experiment the light intensity was varied from 3 to 100 mW/cm^2 while keeping the photo-initiator concentrations constant at 0.05 wt % and 0.2/2 mM for 12959 and Ru/SPS respectively. The level of oxygen inhibition was characterised as the deformation of thickness before (to) and after equilibrium swelling (ts). The deformation of thickness is given by the equation: Deformation of thickness=[(t0−ts)/t0]×100.

Series [10] relates to human articular chondrocytes (HAC). The series can be described thus: GAG assay of HAC encapsulated in Gel-MA hydrogels. It counts as cell-based. Conditions: at 21 days. Here is the method: Cell-laden Gel-MA samples were digested overnight in 200 μL of 1 mg/ml proteinase-K solution at 56° C. In order to quantify the amount of GAG retained in the gel, the digested samples were reacted with DMMB. The absorbance of the samples was then measured at 492 nm (Fluostar Galaxy BMG Labtechnology). The GAG concentrations were calculated from a standard curve constructed using known concentrations of CS-A. The amount of DNA in the gels was measured using the CyQUANT kit. The cells in the digested samples were firstly lysed and RNA degraded using the provided lysis buffer with RNase A (1.35 KU/ml) added for 1 hour at RT. GR-dye solution was then added to the samples, incubated at RT for 15 minutes then the fluorescence was measured (Fluostar Galaxy BMG Labtechnology). A standard curve was constructed using the DNA provided in the kit.

Series [11] shares this test system.
Method: as §3, §4, §5
In series [12] the test system is Breast adenocarcinoma cells (MCF-7).
Method: A live/dead assay was performed after 1 day to evaluate the viability of encapsulated MCF-7 cells.
Where [13] appears, read: read-out: IC50 Assembled construct.

As usually defined, the pIC50 is the negative decadic logarithm of the IC50, by convention in mol/L. Consider `COc1cccc2c1C(=O)c1c(O)c3c(c(O)c1C2=O)C[C@@](O)(C(=O)CO)C[C@@H]3O[C@H]1C[C@H](N)[C@H](O)[C@H](C)O1` [doxorubicin, Doxorubicin], for which the negative-log IC50 (pIC50) in [1] (read-out: IC50 2D) is 7.30; in series [1] (setting [13]), 5.62; in series [1] (read-out: IC50 Microspheres), 6.82; in series [2] (read-out: IC50 2D), 6.80; in series [2] (setting [13]), 5.42; in series [2] (read-out: IC50 Microspheres), 6.74. In addition, the pIC50 is 7.10 in series [3] (read-out: IC50 2D), 5.25 in series [3] (setting [13]) and 6.54 in series [3] (read-out: IC50 Microspheres). For the same compound, the entries for the “Fold change in IC50 Assembled construct/microspheres” value in [4], in series [6] and in [7] were 16.33, 19.34 and 21.41, respectively. Further, the “Fold change in IC50 Assembled construct/monolayer” value was determined as 48.32 in series [4], 70.14 in [6] and 24.32 in series [7]. Also, the “Fold change in IC50 Microspheres/monolayer” value in [4] came out at 2.96; in series [6] it was 3.63; in series [7], 1.14. In addition, the “tissue present in cancer construct (darkfield images)” value in series [5] (1 μM drug) was “atrophy of the tissue”; in series [5] (10 μM drug), “almost no tissue present”.

What is called cell viability is a per cent measure of how many cells are alive, often set against a control. Low readings indicate a greater loss of cells, high ones better survival. For the compound `CC(C)(O)C(=O)c1ccc(OCCO)cc1` [UV+I2959, 1-[4-(2-hydroxyethoxy)-phenyl]-2-hydroxy-2-methyl-1-propane-1-one], the “cell morphology (live-dead stain)” value in [8] is on record as “the cells became rounded”. Also, in series [9] (3 mW/cm^2, 0.05 wt % I2959 or 0.2/2 Ru/SPS (mM)), the “reduction of thickness (deformation of thickness)” value is recorded as ~55%. For the same compound, in series [9] (3 mW/cm^2, 0.5 wt % I2959 or 2/20 Ru/SPS (mM), controls without oxygen <10%), the deformation of thickness entry is listed as “comparable to the controls”. In series [10], this compound returned a GAG/gel of 0.1 µg/mg. Moreover, in series [11], the “number of cells attached” value was 20 HACs/mm^2. The cell viability in series [12] is given as 50%.
